Patent US20110059941A1, “2-PHENYL SUBSTITUTED IMIDAZOL [4,5B] PYRIDINE/PYRAZINE AND PURINE DERIVATIVES AS GLUCOKINASE MODULATORS” (priority 2005, published 2011)

Biological target: T1, recombinant human pancreatic GLK (Homo sapiens, UniProt P35557)
T1 sequence (P35557 1-465): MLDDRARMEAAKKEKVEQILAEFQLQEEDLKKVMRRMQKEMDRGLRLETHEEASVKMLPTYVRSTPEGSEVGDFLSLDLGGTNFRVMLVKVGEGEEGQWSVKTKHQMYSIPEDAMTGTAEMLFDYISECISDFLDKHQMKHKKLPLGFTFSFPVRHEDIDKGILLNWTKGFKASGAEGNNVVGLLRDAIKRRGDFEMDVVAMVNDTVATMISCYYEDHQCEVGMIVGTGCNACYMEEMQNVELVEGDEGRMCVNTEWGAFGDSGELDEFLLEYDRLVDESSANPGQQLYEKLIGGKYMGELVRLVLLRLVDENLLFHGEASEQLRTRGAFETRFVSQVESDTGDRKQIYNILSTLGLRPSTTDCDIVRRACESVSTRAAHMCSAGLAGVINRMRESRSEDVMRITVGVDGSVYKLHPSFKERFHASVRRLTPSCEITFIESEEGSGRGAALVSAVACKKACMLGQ
Test: biochemical

COC[C@H](C)Oc1cc(OCc2ccccc2)cc(-c2nc3cccnc3[nH]2)c1 [Example 1, 2-{3-(Benzyloxy)-5-[(1S)-2-methoxy-1-methylethoxy]phenyl}-3H-imidazo[4,5-b]pyridine]
EC50: 600 nM
